# According to ChEMBL document CHEMBL3044825, “Synthesis and in vitro microbial activities of amides of pyridoquinolone” (2011):
# Columns and labels:
# Type in all cases: functional
# Details in all cases: read-out: IZ
# Candida albicans = test: Antifungal activity against Candida albicans at 100 ug/ml by cup-plate method
# Bacillus subtilis = test: Antibacterial activity against Bacillus subtilis at 100 ug/ml by cup plate method
# Staphylococcus aureus = test: Antibacterial activity against Staphylococcus aureus at 100 ug/ml by cup-plate method
# Pseudomonas aeruginosa = test: Antibacterial activity against Pseudomonas aeruginosa at 100 ug/ml by cup-plate method
# Escherichia coli = test: Antibacterial activity against Escherichia coli at 100 ug/ml by cup-plate method
SMILES,zone of inhibition at 100 µg/mL (Candida albicans),zone of inhibition at 100 µg/mL (Bacillus subtilis),zone of inhibition at 100 µg/mL (Staphylococcus aureus),zone of inhibition at 100 µg/mL (Pseudomonas aeruginosa),zone of inhibition at 100 µg/mL (Escherichia coli)
Cc1ccccc1NS(=O)(=O)c1ccc(NC(=O)c2cn(CCO)c3c(cc(O)c4ncccc43)c2=O)cc1,0 mm,6 mm,4 mm,4 mm,0 mm
N#Cc1cc([N+](=O)[O-])ccc1NS(=O)(=O)c1ccc(NC(=O)c2cn(CCO)c3c(cc(O)c4ncccc43)c2=O)cc1,2 mm,6 mm,8 mm,8 mm,6 mm
O=C(Nc1cccc([N+](=O)[O-])c1)c1cn(CCO)c2c(cc(O)c3ncccc32)c1=O,2 mm,8 mm,7 mm,10 mm,8 mm
O=C(Nc1ccc([N+](=O)[O-])cc1)c1cn(CCO)c2c(cc(O)c3ncccc32)c1=O,0 mm,7 mm,8 mm,6 mm,6 mm
Cc1cccc(NC(=O)c2cn(CCO)c3c(cc(O)c4ncccc43)c2=O)c1,1 mm,6 mm,5 mm,6 mm,0 mm
Cc1ccc(C)c(NC(=O)c2cn(CCO)c3c(cc(O)c4ncccc43)c2=O)c1,2 mm,9 mm,8 mm,8 mm,9 mm
O=C(Nc1ccc(S(=O)(=O)Nc2ccccc2)cc1)c1cn(CCO)c2c(cc(Cl)c3ncccc32)c1=O,2 mm,10 mm,8 mm,7 mm,6 mm
O=C(Nc1ccc(S(=O)(=O)Nc2ccc(Cl)cc2)cc1)c1cn(CCO)c2c(cc(Cl)c3ncccc32)c1=O,1 mm,7 mm,6 mm,0 mm,8 mm
O=C(Nc1ccc(S(=O)(=O)Nc2cccc([N+](=O)[O-])c2)cc1)c1cn(CCO)c2c(cc(Cl)c3ncccc32)c1=O,2 mm,8 mm,6 mm,5 mm,7 mm
Cc1cccc(NS(=O)(=O)c2ccc(NC(=O)c3cn(CCO)c4c(cc(Cl)c5ncccc54)c3=O)cc2)c1,0 mm,6 mm,0 mm,4 mm,0 mm
COc1ccc(NC(=O)c2cn(CCO)c3c(cc(Cl)c4ncccc43)c2=O)cc1,2 mm,6 mm,6 mm,6 mm,0 mm
Cc1ccccc1NC(=O)c1cn(CCO)c2c(cc(Cl)c3ncccc32)c1=O,0 mm,5 mm,0 mm,4 mm,7 mm
Cc1ccc(NC(=O)c2cn(CCO)c3c(cc(Cl)c4ncccc43)c2=O)cc1,0 mm,7 mm,5 mm,5 mm,4 mm
Cc1ccc(C)c(NC(=O)c2cn(CCO)c3c(cc(Cl)c4ncccc43)c2=O)c1,0 mm,9 mm,8 mm,8 mm,10 mm
O=C(Nc1ccccc1)c1cn(CCO)c2c(cc(O)c3ncccc32)c1=O,1 mm,6 mm,7 mm,8 mm,8 mm
O=C(Nc1cccc(Cl)c1)c1cn(CCO)c2c(cc(O)c3ncccc32)c1=O,0 mm,6 mm,0 mm,4 mm,4 mm
COc1ccccc1NC(=O)c1cn(CCO)c2c(cc(O)c3ncccc32)c1=O,1 mm,8 mm,6 mm,0 mm,6 mm
